According to US20200131669A1, “CYCLIC PEPTIDE COMPOUND HAVING HIGH MEMBRANE PERMEABILITY, AND LIBRARY CONTAINING SAME” (Chugai Seiyaku Kabushiki Kaisha, priority 2017, published 2020):
Starred links: 1 amine or outer side, 2 acyl side, 3 side chain; linkers in the order of their positions; H or OH if unused. Positions of bridges follow the written chain, without caps; N, C: chain ends. Non-standard residues stand in square brackets, D forms with d. Residues, ends and D or L forms follow the SMILES beside them. *: point of attachment. X13 = O=C([C@@H]1C[C@H](N2CCC(F)(F)CC2)CN1[*:1])[*:2]; X4 = O=C([C@@H]1C[C@@H](N2CCC(F)(F)CC2)CN1[*:1])[*:2]; NMeAbu(4-morpholino) = CN[C@@H](CCN1CCOCC1)C(=O)O; NMePhe(3-Cl) = CN[C@@H](Cc1cccc(Cl)c1)C(=O)O; X12 = CCCC[C@@H](O)[C@H](N[*:1])C(=O)[*:2]; X15 = CN([C@H](CCN1CCOCC1)C(=O)[*:2])[*:1]; X8 = O=C(CN(CCN1CCC(F)(F)CC1)[*:1])[*:2]; X3 = O=C([C@H](CCCCO)N[*:1])[*:2]; NMeF = CN[C@@H](Cc1ccccc1)C(=O)O; NMeGABA = CN(CCCC(=O)[*:2])[*:1]; NMeL = CN[C@@H](CC(C)C)C(=O)O; NMeV = CN[C@H](C(=O)O)C(C)C; NMeA = CN[C@@H](C)C(=O)O; Piperidide = C1CCN(*)CC1; dAbu = CC[C@@H](N)C(=O)O; NBuGly = CCCCNCC(=O)O; Sar = CNCC(=O)O; tBu = CC(C)(C)*

Experiment: Caco-2 membrane permeability, improved method as used in the following Examples (96-well, 20 to 24 h preincubation)
Type: in vitro ADME
Settings: human, Caco-2, Caco-2
Procedure, shortened: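 Caco-2 monolayers were grown three weeks and preincubated 20–24 h at 37 °C with compound in DMEM+FaSSIF (1% DMSO) apically. The assay then used compound in FaSSIF/HBSS (1% DMSO, pH 6.0) apically and HBSS with 4% BSA (pH 7.4) basally. Basal samples were taken at 180 min for LC/MS, and Papp (cm/sec) was calculated.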
Work on `CC(C)C[C@@H]1NC(=O)[C@H](Cc2ccccc2)N(C)C(=O)[C@@H](C(C)C)NC(=O)C[C@@H](C(=O)N2CCCCC2)NC(=O)[C@H](C(C)C)N(C)C(=O)[C@H](Cc2ccccc2)N(C)C(=O)[C@H](COC(C)(C)C)NC(=O)[C@H](CC(C)C)N(C)C(=O)CN(C)C(=O)[C@H](CCCCO)NC(=O)[C@H](CC(C)C)N(C)C1=O` [pd450] ([dV][NMeF]L[NMeL][X3][Sar][NMeL]S(tBu)[NMeF][NMeV]D-Piperidide; lactam N-11) yielded a Papp A→B at 180 min of 1.8 ×10⁻⁶ cm/s.
Work on `CC(C)C[C@@H]1NC(=O)[C@H](C)N(C)C(=O)C[C@@H](C(=O)N2CCCCC2)NC(=O)[C@H](CC(C)C)N(C)C(=O)CN(C)C(=O)[C@H](CCCCO)NC(=O)[C@H](CC(C)C)N(C)C(=O)[C@H](Cc2ccccc2)N(C)C(=O)[C@H](CC(C)C)NC(=O)[C@H](Cc2ccccc2)N(C)C(=O)[C@H](CC(C)C)N(C)C1=O` [pd451] ([NMeA]L[NMeL][NMeF]L[NMeF][NMeL][X3][Sar][NMeL]D-Piperidide; lactam N-11) yielded a Papp A→B at 180 min of 4.1 ×10⁻⁶ cm/s.
`CCCCN1CC(=O)N(C)[C@@H](CC(C)C)C(=O)N[C@@H](COC(C)(C)C)C(=O)N(C)[C@@H](Cc2ccccc2)C(=O)N(C)[C@@H](C(C)C)C(=O)N[C@H](C(=O)N2CCCCC2)CC(=O)N[C@H](CC(C)C)C(=O)N(C)[C@@H](Cc2ccccc2)C(=O)N[C@@H](CC(C)C)C(=O)N(C)[C@@H](CCN2CCOCC2)C(=O)N[C@@H]([C@@H](C)O)C1=O` [pd452] ([dL][NMeF]L[NMeAbu(4-morpholino)]T[NBuGly][NMeL]S(tBu)[NMeF][NMeV]D-Piperidide; lactam N-11) showed a Papp A→B at 180 min of 1.3 ×10⁻⁶ cm/s.
Compound `CCCCN1CC(=O)N(C)[C@@H](C(C)C)C(=O)N[C@H](C(=O)N2CCCCC2)CC(=O)N(C)[C@@H](C)C(=O)N[C@@H](CC(C)C)C(=O)N(C)[C@@H](CC(C)C)C(=O)N(C)[C@@H](Cc2ccccc2)C(=O)N[C@@H](CC(C)C)C(=O)N(C)[C@@H](Cc2ccccc2)C(=O)N(C)[C@@H](CCN2CCOCC2)C(=O)N[C@@H]([C@@H](C)O)C1=O` [pd453] ([NMeA]L[NMeL][NMeF]L[NMeF][NMeAbu(4-morpholino)]T[NBuGly][NMeV]D-Piperidide; lactam N-11) has a Papp A→B at 180 min of 2.3 ×10⁻⁶ cm/s.
For `CCCCN1CC(=O)N(C)[C@H](CCN2CCOCC2)C(=O)N[C@H](C(=O)N2CCCCC2)CC(=O)N(C)[C@@H](C)C(=O)N[C@@H](CC(C)C)C(=O)N(C)[C@@H](CC(C)C)C(=O)N(C)[C@@H](Cc2ccccc2)C(=O)N[C@@H](CC(C)C)C(=O)N(C)[C@@H](Cc2ccccc2)C(=O)N(C)[C@@H](CC(C)C)C(=O)N[C@@H]([C@@H](C)O)C1=O` [pd454] ([NMeA]L[NMeL][NMeF]L[NMeF][NMeL]T[NBuGly][X15]D-Piperidide; lactam N-11), the Papp A→B at 180 min was 1.2 ×10⁻⁶ cm/s.
In the case of `CC(C)C[C@@H]1NC(=O)[C@H](Cc2ccccc2)N(C)C(=O)[C@H](CC(C)C)N(C)C(=O)[C@H](CC(C)C)NC(=O)[C@H](C)N(C)C(=O)C[C@@H](C(=O)N2CCCCC2)NC(=O)[C@H](CC(C)C)N(C)C(=O)CN(C)C(=O)[C@H]([C@@H](C)O)NC(=O)CN(CCN2CCC(F)(F)CC2)C(=O)[C@H](Cc2ccccc2)N(C)C1=O` [pd456] ([NMeA]L[NMeL][NMeF]L[NMeF][X8]T[Sar][NMeL]D-Piperidide; lactam N-11), the Papp A→B at 180 min is reported as 5 ×10⁻⁶ cm/s.
`CC(C)C[C@H]1C(=O)N[C@@H](COC(C)(C)C)C(=O)N(C)[C@@H](Cc2ccccc2)C(=O)N(C)[C@@H](CC(C)C)C(=O)N[C@H](C(=O)N2CCCCC2)CC(=O)N2C[C@H](N3CCC(F)(F)CC3)C[C@H]2C(=O)N(C)[C@@H](Cc2cccc(Cl)c2)C(=O)N[C@@H](C(C)C)C(=O)N(C)[C@@H](C(C)C)C(=O)N[C@@H]([C@@H](C)O)C(=O)N(C)CC(=O)N1C` [pd458] ([X4][NMePhe(3-Cl)]V[NMeV]T[Sar][NMeL]S(tBu)[NMeF][NMeL]D-Piperidide; lactam N-11) gave a Papp A→B at 180 min of 1.2 ×10⁻⁶ cm/s.
Work on `CC[C@H]1NC(=O)C[C@@H](C(=O)N2CCCCC2)NC(=O)[C@H](CC(C)C)N(C)C(=O)[C@H](Cc2ccccc2)NC(=O)[C@@H]2C[C@@H](N3CCC(F)(F)CC3)CN2C(=O)[C@H]([C@@H](C)O)NC(=O)[C@H](CC(C)C)N(C)C(=O)[C@H](CC(C)C)NC(=O)[C@H](CC(C)C)N(C)C(=O)[C@H](COC(C)(C)C)NC(=O)[C@H](CC(C)C)N(C)C1=O` [pd459] ([dAbu][NMeL]S(tBu)[NMeL]L[NMeL]T[X4]F[NMeL]D-Piperidide; lactam N-11) yielded a Papp A→B at 180 min of 1.6 ×10⁻⁶ cm/s.
Compound `CC(C)C[C@H]1C(=O)N(C)[C@@H](CC(C)C)C(=O)N(C)[C@@H](CC(C)C)C(=O)N(C)[C@@H](Cc2ccccc2)C(=O)N[C@@H]([C@@H](C)O)C(=O)N(C)[C@@H](Cc2ccccc2)C(=O)N(C)[C@@H](CC(C)C)C(=O)N2C[C@H](N3CCC(F)(F)CC3)C[C@H]2C(=O)N[C@H](C(=O)N2CCCCC2)CC(=O)N[C@@H](C(C)C)C(=O)NCC(=O)N1C` [pd460] (VG[NMeL][NMeL][NMeL][NMeF]T[NMeF][NMeL][X4]D-Piperidide; lactam N-11) has a Papp A→B at 180 min of 1.2 ×10⁻⁶ cm/s.
For `CC(C)C[C@H]1C(=O)N[C@@H](COC(C)(C)C)C(=O)N(C)[C@@H](Cc2ccccc2)C(=O)N(C)[C@@H](CC(C)C)C(=O)N[C@H](C(=O)N2CCCCC2)CC(=O)N2C[C@@H](N3CCC(F)(F)CC3)C[C@H]2C(=O)N(C)[C@@H](Cc2cccc(Cl)c2)C(=O)N[C@@H](C(C)C)C(=O)N(C)[C@@H](C(C)C)C(=O)N[C@@H]([C@@H](C)O)C(=O)N(C)CC(=O)N1C` [pd461] ([X13][NMePhe(3-Cl)]V[NMeV]T[Sar][NMeL]S(tBu)[NMeF][NMeL]D-Piperidide; lactam N-11), the Papp A→B at 180 min was 1.4 ×10⁻⁶ cm/s.
In the case of `CCCC[C@@H](O)[C@@H]1NC(=O)[C@H](CC(C)C)N(C)C(=O)[C@H](C)NC(=O)[C@H](Cc2ccccc2)N(C)C(=O)[C@@H](C(C)C)NC(=O)C[C@@H](C(=O)N2CCCCC2)NC(=O)[C@H](C)N(C)C(=O)[C@H](Cc2ccccc2)N(C)C(=O)[C@H](COC(C)(C)C)NC(=O)[C@H](CC(C)C)N(C)C(=O)CN(C)C1=O` [pd467] ([dV][NMeF]A[NMeL][X12][Sar][NMeL]S(tBu)[NMeF][NMeA]D-Piperidide; lactam N-11), the Papp A→B at 180 min is reported as 1.4 ×10⁻⁶ cm/s.
`CCCC[C@@H](O)[C@@H]1NC(=O)[C@H](Cc2ccccc2)N(C)C(=O)[C@H](Cc2ccccc2)N(C)C(=O)[C@H]([C@@H](C)CC)NC(=O)[C@H](CC(C)C)N(C)C(=O)CCCN(C)C(=O)C[C@@H](C(=O)N2CCCCC2)NC(=O)[C@H](CC(C)C)N(C)C(=O)[C@H](C)N(C)C(=O)[C@H]([C@@H](C)O)NC(=O)[C@H](CC(C)C)N(C)C1=O` [pd468] ([NMeGABA][NMeL]I[NMeF][NMeF][X12][NMeL]T[NMeA][NMeL]D-Piperidide; lactam N-11) gave a Papp A→B at 180 min of 1 ×10⁻⁶ cm/s.

Same assay, conditions: human; Papp, Caco-2 membrane permeability, improved method; read-out: Caco-2
With `CNC(=O)CC[C@@H]1NC(=O)[C@H](CC(C)C)N(C)C(=O)[C@H](C(C)C)N(C)C(=O)[C@H](Cc2ccccc2)NC(=O)[C@H](Cc2ccccc2)N(C)C(=O)[C@H](CC(C)C)N(C)C(=O)[C@H](CC(C)C)NC(=O)[C@H](CC(C)C)N(C)C(=O)C[C@@H](C(=O)N2CCCCC2)NC(=O)[C@H](CC(C)C)N(C)C(=O)CN(C)C1=O` [pd463] ([NMeL]L[NMeL][NMeF]F[NMeV][NMeL]E(NHMe)[Sar][NMeL]D-Piperidide; lactam N-11) the Papp A→B at 180 min was 1.2 ×10⁻⁶ cm/s.
